The test system of experiment [1] is isolated bronchial smooth muscle. The experiment in a line: Activity on isolated bronchial smooth muscle (in vitro test), histamine dihydrochloride as spasmogen (Anti-histamine). The format is cell-based, guinea pig. Conditions: for EC50: Cavia porcellus, read-out: Anti-histamine ED50; for Anti-histamine relative activity: relative to control E (trimetoquinol) = 1.0, ED50 ratio, smaller = more potent. The procedure: (§1) Activity on isolated bronchial smooth muscle (in vitro test)
(§2) The trachea of a guinea pig was cut spirally and the isolated bronchial preparation was suspended in Magnus bath. Tyrode's solution was filled in a 50 ml bath and kept at 37° C. Then, 10-^5 g/ml of histamine dihydrochloride or methacholine chloride was added to a bath as spasmogen. After the contraction of the trachea reached a plateau, a test substance shown in the below-showing table was added to the preparation, cumulatively. The concentration producing 50% relaxation of the contracted bronchial muscle was designated as ED50.

For experiment [2] the test system is unchanged. The experiment in a line: Activity on isolated bronchial smooth muscle (in vitro test), methacholine chloride as spasmogen (Anti-methacholine Chloride). Particulars: for EC50: Cavia porcellus, read-out: Anti-methacholine Chloride ED50; for Anti-methacholine Chloride relative activity: relative to control E (trimetoquinol) = 1.0, ED50 ratio, smaller = more potent. It is filed as cell-based, guinea pig. The procedure:
as §1, §2

Another experiment relates to Histamine-asthma. The experiment in a line: Activity on experimental asthma (in vivo test), Histamine-asthma. Details: species or system guinea pig. Particulars: Cavia porcellus, sc, read-out: Histamine-asthma ED50. The procedure:
(§3) Activity on experimental asthma (in vivo test)
(§4) A guinea pig was placed in a 11 liter glass chamber and exposed to the spasmogen by means of a nebulizer. […] Drugs were administered subcutaneously to animals 30 minutes before application of the spasmogen. […] ED50 was calculated by the method of Litchfield-Wilcoxon [J. Pharmacol. Exptl. Therap, 96, 99-113 (1949)].

The subject of experiment [3] is Methacholine chloride-asthma. The experiment in a line: Activity on experimental asthma (in vivo test), Methacholine chloride-asthma. Set-up: species or system guinea pig. Conditions: Cavia porcellus, sc, read-out: Methacholine chloride-asthma Ed50. The procedure:
as §3, §4

A further experiment concerns the target T1, β1 (Canis lupus familiaris, UniProt P79148).
T1 construct: Mongrel dogs of either sex; from tissue; host or cells: heart of the living anesthetized mongrel dog (heart rate)
Kind of experiment: β1-action: heart rate response (ΔHR) in anesthetized dogs. The format is in vivo, Mongrel dogs. Conditions: intravenous. The procedure: Mongrel dogs of either sex weighing about 10 Kg were anesthetized with pentobarbital Na, 30 mg/Kg intravenously. Arterial blood pressure was measured from a cannula in the right femoral artery and the pulse pressure used to trigger a ratemeter for a record of heart rate. (β1.action). Intravenous injections were made through a cannula in a femoral vein, and ED50bpm values were obtained from the does-response (ΔHR) curves. ED50bpm vs. ED50 ratios mean its own selectivity.

For a further experiment, the system named is β1 /β2. The experiment in a line: Selectivity (ratio of β1/β2), ED50bpm vs. ED50 in anesthetized dogs. The format is in vivo, Mongrel dogs.
The next experiment concerns the target T2, β2 (Canis lupus familiaris, UniProt P54833).
T2 construct: Mongrel dogs of either sex; from tissue; host or cells: airways of the living anesthetized mongrel dog (bronchial resistance)
The experiment in a line: β2-action: inhibition of histamine-induced increase in bronchial resistance in anesthetized dogs. The format is in vivo, Mongrel dogs. Conditions: dog, intravenous, cumulative, 5 minutes before histamine 10 μg/Kg i.v.

The mark [4] stands for this setting: subcutaneous, 30 minutes before 0.01% histamine dihydrochloride spray, Litchfield-Wilcoxon.
The mark [5] stands for this setting: concentration producing 50% relaxation of contracted bronchial muscle, 10^-5 g/ml histamine dihydrochloride, guinea pig trachea, 37° C.
Setting [6] is: concentration producing 50% relaxation of contracted bronchial muscle, 10^-5 g/ml methacholine chloride, guinea pig trachea, 37° C.
[7] abbreviates: subcutaneous, 30 minutes before methacholine chloride spray, Litchfield-Wilcoxon.

≈ marks a conversion by molar mass, not a printed value. Counter-ions that a name gives are not always drawn. Like-named read-outs stand apart in the source and are kept apart here.

T1 sequence (P79148 whole entry): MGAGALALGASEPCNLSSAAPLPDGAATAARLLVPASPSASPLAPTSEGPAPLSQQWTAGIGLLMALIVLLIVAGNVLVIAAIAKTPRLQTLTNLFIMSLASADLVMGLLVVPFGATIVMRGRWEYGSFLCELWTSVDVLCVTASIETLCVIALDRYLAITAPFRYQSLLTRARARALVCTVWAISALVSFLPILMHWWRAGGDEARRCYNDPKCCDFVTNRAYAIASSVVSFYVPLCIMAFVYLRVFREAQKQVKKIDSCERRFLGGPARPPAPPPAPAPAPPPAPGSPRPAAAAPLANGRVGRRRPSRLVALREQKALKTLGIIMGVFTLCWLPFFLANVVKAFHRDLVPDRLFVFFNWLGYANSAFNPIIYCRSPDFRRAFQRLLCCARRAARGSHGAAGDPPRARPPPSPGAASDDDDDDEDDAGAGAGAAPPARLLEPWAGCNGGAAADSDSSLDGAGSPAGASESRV
T2 sequence (P54833 whole entry): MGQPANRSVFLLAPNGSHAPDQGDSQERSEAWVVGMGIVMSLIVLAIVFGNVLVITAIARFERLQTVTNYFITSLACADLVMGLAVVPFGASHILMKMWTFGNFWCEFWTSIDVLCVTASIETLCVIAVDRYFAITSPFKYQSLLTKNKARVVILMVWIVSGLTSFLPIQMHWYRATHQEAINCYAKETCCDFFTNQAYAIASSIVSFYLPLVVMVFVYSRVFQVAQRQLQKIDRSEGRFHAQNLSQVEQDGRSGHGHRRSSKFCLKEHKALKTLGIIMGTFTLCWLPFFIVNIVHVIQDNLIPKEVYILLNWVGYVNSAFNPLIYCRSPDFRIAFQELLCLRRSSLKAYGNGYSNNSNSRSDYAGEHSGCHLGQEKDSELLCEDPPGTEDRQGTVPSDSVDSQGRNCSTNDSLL

In general, ED50 refers to the midpoint of the dose-response relation. Consider `CC(Cc1ccc(O)cc1)NCC(O)c1ccc(O)c(NC=O)c1` (single isomer, unassigned) [Example 8, 3-formylamino-4-hydroxy-α-[N-(1-methyl-2-p-hydroxyphenylethyl)aminomethyl]benzyl alcohol [A] . 1/2 fumarate], for which, in experiment [1], the EC50 worked out at 0.00094 mg/L and the Anti-histamine relative activity is on record as 0.35. In addition, in experiment [2], the EC50 came to 0.011 mg/L and the “Anti-methacholine Chloride relative activity” value is given as 0.52. In addition, the ED50 in the experiment on Histamine-asthma (setting [4]) was 1.9 µg/kg. Moreover, the ED50 in experiment [3] stood at 2.6 µg/kg. At β1, the “β1-action ED50bpm” value was found to be 0.26 µg/kg. For the same compound, the “Selectivity (ratio of β1/β2)” value in the experiment on β1 /β2 is 8.38.
With `COc1ccc(CC(C)NCC(O)c2ccc(O)c(NC=O)c2)cc1` (single isomer, unassigned) [Example 22, 3-formylamino-4-hydroxy-α-[N-(1-methyl-2-p-methoxyphenylethyl)aminomethyl]benzyl alcohol [A] . 1/2 fumarate], in experiment [1], the EC50 came to 0.00046 mg/L and the Anti-histamine relative activity is listed as 0.17. Moreover, in experiment [2], the EC50 was 0.0046 mg/L and the “Anti-methacholine Chloride relative activity” value stood at 0.22. Besides, the ED50 in the experiment with Histamine-asthma worked out at 3.6 µg/kg. Further, the “β1-action ED50bpm” value on β1 amounted to 0.72 µg/kg.
As for `CC(=O)Nc1cc(C(O)CNC(C)C)ccc1O.Cl` (stereo not drawn) [3-acetylamino-4-hydroxy-α-(isopropylaminomethyl)benzyl alcohol hydrochloride], the EC50 was 1 mg/L in experiment [1] (setting [5]) and above 100 mg/L in experiment [2] (setting [6]). Moreover, in experiment [1], the Anti-histamine relative activity turned out to be 370. Moreover, the “Anti-methacholine Chloride relative activity” value in experiment [2] is listed as above 4760.
As for `CC(CCc1ccc(O)cc1)NCC(O)c1ccc(O)c(NC=O)c1` (stereo not drawn) [Example 19, 3-formylamino-4-hydroxy-α-[N-(1-methyl-3-p-hydroxyphenylpropyl)aminomethyl] benzyl alcohol . 1/2 fumarate . mono-hydrate], the results for the EC50 in experiment [1] (setting [5]) and in experiment [2] (setting [6]) were 0.00086 mg/L and 0.0089 mg/L, respectively. For the same compound, the Anti-histamine relative activity in experiment [1] was 0.32. Moreover, in experiment [2], the “Anti-methacholine Chloride relative activity” value is on record as 0.42. The ED50 in the experiment with Histamine-asthma (setting [4]) was 1.4 µg/kg; in experiment [3] (setting [7]), 8.1 µg/kg. Besides, the “β1-action ED50bpm” value on β1 came out at 0.59 µg/kg. In addition, the “Selectivity (ratio of β1/β2)” value in the experiment with β1 /β2 came to 12.
Turning to `CC(C)NCC(O)c1ccc(O)c(N)c1` (stereo not drawn) [Known compound A, 3-amino-4-hydroxy-α-isopropylaminomethylbenzyl alcohol], in experiment [1], the EC50 was determined as 0.3 mg/L (≈ 1.43 µM) and the Anti-histamine relative activity is given as 111. In experiment [2], the EC50 was determined as 3 mg/L (≈ 14.3 µM) and the “Anti-methacholine Chloride relative activity” value is recorded as 143.
In the case of `CCOC(=O)Nc1cc(C(O)CNC(C)C)ccc1O` (stereo not drawn) [Known compound B, 3-ethoxycarbonylamino-4-hydroxy-α-isopropylaminomethylbenzyl alcohol], the EC50 in experiment [1] (setting [5]) was 5 mg/L (≈ 17.7 µM); in experiment [2] (setting [6]), above 100 mg/L. In addition, the Anti-histamine relative activity in experiment [1] was 185. Further, in experiment [2], the “Anti-methacholine Chloride relative activity” value is listed as above 4760.
The like results for `CNC(=O)Nc1cc(C(O)CNC(C)C)ccc1O` (stereo not drawn) [Known compound C, 4-hydroxy-3-(N'-methylureido)-α-isopropylaminomethylbenzyl alcohol] were, in that order, 0.09 mg/L (≈ 0.337 µM), above 100 mg/L, 3.33 and above 4760.
In the case of `CC(C)(C)NCC(O)c1ccc(O)c(CO)c1` (stereo not drawn) [Known compound D, 4-hydroxy-3-hydroxymethyl-α-tert-butylaminomethylbenzyl alcohol], the EC50 in experiment [1] (setting [5]) turned out to be 0.01 mg/L (≈ 0.0418 µM); in experiment [2] (setting [6]), 0.096 mg/L (≈ 0.401 µM). In addition, the Anti-histamine relative activity in experiment [1] was determined as 3.7. Besides, the “Anti-methacholine Chloride relative activity” value in experiment [2] is 4.57. Moreover, on β2, the ED50 came to 1.4 µg/kg. In addition, the “β1-action ED50bpm” value on β1 amounted to 7.0 µg/kg. In addition, in the experiment on β1 /β2, the “Selectivity (ratio of β1/β2)” value was 5.0.
Consider `COc1cc(C[C@@H]2NCCc3cc(O)c(O)cc32)cc(OC)c1OC` [Known compound E, l-1-(3,4,5-trimethoxybenzyl)-6,7-dihydroxy 1,2,3,4-tetrahydroisoquinoline hydrochloride], for which the results for the EC50 in experiment [1] (setting [5]) and in experiment [2] (setting [6]) were 0.0027 mg/L and 0.021 mg/L, respectively. Also, the Anti-histamine relative activity in experiment [1] was determined as 1.0. Moreover, the “Anti-methacholine Chloride relative activity” value in experiment [2] amounted to 1.0. Besides, the figures for the ED50 (in the experiment with Histamine-asthma (setting [4]); in experiment [3] (setting [7])) were 11.3 µg/kg and 12.4 µg/kg, respectively.
In the case of `CC(C)NCC(O)c1ccc(O)c(O)c1` (stereo not drawn) [Known compound F, α-(isopropylaminomethyl) protocatechuyl alcohol], the EC50 in experiment [1] (setting [5]) is 0.0055 mg/L (≈ 0.026 µM); in experiment [2] (setting [6]) it was 0.028 mg/L (≈ 0.133 µM). Also, the Anti-histamine relative activity in experiment [1] is recorded as 2.04. In addition, the “Anti-methacholine Chloride relative activity” value in experiment [2] was determined as 1.33. For the same compound, the ED50 with Histamine-asthma (setting [4]) worked out at 15.7 µg/kg; in experiment [3] (setting [7]), 11.2 µg/kg.

The record behind these values is patent publication US3994974A, “α-Aminomethylbenzyl alcohol derivatives” (Yamanouchi Pharmaceutical Co., Ltd., priority 1972, dated 1976).
